Test results published in US7371762B2, “3-substituted 6,7-dihydroxytetrahydroisoquinoline derivatives for use as antibacterial agents” (Arpida AG, priority 2001, dated 2008).
In brackets after ≈: the same amount, converted by molar mass.

Key:
Experiment in all cases: Minimal inhibitory concentration (MIC), NCCLS M7-A5 procedure
Assay type in all cases: cell-based
Escherichia coli DC2 = settings: read-out: Minimal inhibitory concentration (MIC) EC DC2
Protocol: (§1) Minimal inhibitory concentrations (MIC) were determined in accordance with the National Committee for Clinical Laboratory Standards (NCCLS) procedure [M7-A5, 2001].
(§2) The results obtained are summarized in table 1 and are expressed in jig/ml. In this table 1, EC 25922 means Escherichia coli ATCC25922, EC DC2 means Escherichia coli DC2, SA 25923 means Staphylococcus aureus ATCC25923 and SA 101 means Staphylococcus aureus 101. (ATCC=American Type Culture Collection)
(§3) M7-A5* (2001): Methods for Dilution Antimicrobial Susceptibility Tests for Bacteria that Grow Aerobically; Approved Standard—Fifth Edition American National Standard.

[1] = system: Escherichia coli ATCC25922; settings: read-out: Minimal inhibitory concentration (MIC) EC 25922
Protocol: as §1, §2, §3

[2] = system: Staphylococcus aureus 101; settings: read-out: Minimal inhibitory concentration (MIC) SA 101
Protocol: as §1, §2, §3

[3] = system: Staphylococcus aureus ATCC25923; settings: read-out: Minimal inhibitory concentration (MIC) SA 25923
Protocol: as §1, §2, §3

Oc1cc2c(cc1O)CC(c1ccc(Br)cc1)NC2 (stereo not shown) [Example 16, 3-(4-Bromo-phenyl)-1,2,3,4-tetrahydro-isoquinoline-6,7-diol]
MIC (Escherichia coli DC2): 32 µg/mL (≈ 99.9 µM) | MIC [1]: > 128 µg/mL | MIC [2]: 64 µg/mL (≈ 200 µM) | MIC [3]: 8 µg/mL (≈ 25 µM)

COc1ccc(C2Cc3cc(O)c(O)cc3CN2)c2ccccc12 (stereo not shown) [Example 4, 3-(4-Methoxy-naphthalen-1-yl)-1,2,3,4-tetrahydro-isoquinoline-6,7-diol]
MIC (Escherichia coli DC2): 32 µg/mL (≈ 99.6 µM) | MIC [3]: 32 µg/mL (≈ 99.6 µM)

Oc1cc2c(cc1O)CC(c1ccc(-c3ccccc3)cc1)NC2 (stereo not shown) [Example 12, 3-Biphenyl-4-yl-1,2,3,4-tetrahydro-isoquinoline-6,7-diol]
MIC (Escherichia coli DC2): 8 µg/mL (≈ 25.2 µM) | MIC [1]: 16 µg/mL (≈ 50.4 µM) | MIC [2]: 16 µg/mL (≈ 50.4 µM) | MIC [3]: 4 µg/mL (≈ 12.6 µM)

Oc1cc2c(cc1O)CC(c1ccc(O)c3ccccc13)NC2 (stereo not shown) [Example 5, 3-(4-Hydroxy-naphthalen-1-yl)-1,2,3,4-tetrahydro-isoquinoline-6,7-diol]
MIC (Escherichia coli DC2): 16 µg/mL (≈ 52.1 µM) | MIC [3]: 32 µg/mL (≈ 104 µM)

Oc1cc2c(cc1O)CC(COc1ccc(Cl)c(Cl)c1)NC2 (stereo not shown) [Example 13, 3-(3,4-Dichloro-phenoxymethyl)-1,2,3,4-tetrahydro-isoquinoline-6,7-diol]
MIC (Escherichia coli DC2): 16 µg/mL (≈ 47 µM) | MIC [1]: > 128 µg/mL | MIC [2]: 16 µg/mL (≈ 47 µM) | MIC [3]: 16 µg/mL (≈ 47 µM)

Oc1cc2c(cc1O)CC(c1ccc(-c3ccccc3O)cc1)NC2 (stereo not shown) [Example 20, 3-(2′-Hydroxy-biphenyl-4-yl)-1,2,3,4-tetrahydro-isoquinoline-6,7-diol]
MIC (Escherichia coli DC2): 32 µg/mL (≈ 96 µM) | MIC [1]: 128 µg/mL (≈ 384 µM) | MIC [2]: 32 µg/mL (≈ 96 µM) | MIC [3]: 16 µg/mL (≈ 48 µM)

CC1NC(c2ccc(Oc3ccccc3)cc2)Cc2cc(O)c(O)cc21 (stereo not shown) [Example 3, 1-Methyl-3-(4-phenoxy-phenyl)-1,2,3,4-tetrahydro-isoquinoline-6,7-diol]
MIC (Escherichia coli DC2): 32 µg/mL (≈ 92.1 µM) | MIC [3]: 16 µg/mL (≈ 46.1 µM)

Oc1cc2c(cc1O)CN(Cc1ccccc1)C(COc1ccc(Cl)cc1Cl)C2 (stereo not shown) [Example 11, 2-Benzyl-3-(2,4-dichloro-phenoxymethyl)-1,2,3,4-tetrahydro-isoquinoline-6,7-diol]
MIC (Escherichia coli DC2): > 128 µg/mL | MIC [1]: > 128 µg/mL | MIC [2]: 8 µg/mL (≈ 18.6 µM) | MIC [3]: 8 µg/mL (≈ 18.6 µM)

Oc1cc2c(cc1O)CC(COc1cc(Cl)ccc1Cl)NC2 (stereo not shown) [Example 14, 3-(2,5-Dichloro-phenoxymethyl)-1,2,3,4-tetrahydro-isoquinoline-6,7-diol]
MIC (Escherichia coli DC2): 32 µg/mL (≈ 94.1 µM) | MIC [1]: 128 µg/mL (≈ 376 µM) | MIC [2]: 64 µg/mL (≈ 188 µM) | MIC [3]: 64 µg/mL (≈ 188 µM)

Oc1cc2c(cc1O)CC(c1ccc(Sc3ccccc3)cc1)NC2 (stereo not shown) [Example 8, 3-(4-Phenylsulfanyl-phenyl)-1,2,3,4-tetrahydro-isoquinoline-6,7-diol]
MIC (Escherichia coli DC2): 32 µg/mL (≈ 91.6 µM) | MIC [1]: 64 µg/mL (≈ 183 µM) | MIC [2]: 32 µg/mL (≈ 91.6 µM) | MIC [3]: 8 µg/mL (≈ 22.9 µM)

Oc1cc2c(cc1O)CC(c1ccc(-c3ccc(C(F)(F)F)cc3)cc1)NC2 (stereo not shown) [Example 17, 3-(4′-Trifluoromethyl-biphenyl-4-yl)-1,2,3,4-tetrahydro-isoquinoline-6,7-diol]
MIC (Escherichia coli DC2): 8 µg/mL (≈ 20.8 µM) | MIC [1]: 64 µg/mL (≈ 166 µM) | MIC [2]: 8 µg/mL (≈ 20.8 µM) | MIC [3]: 4 µg/mL (≈ 10.4 µM)

Oc1cc2c(cc1O)CC(c1ccc(Cl)cc1)NC2 (stereo not shown) [Example 15, 3-(4-Chloro-phenyl)-1,2,3,4-tetrahydro-isoquinoline-6,7-diol]
MIC (Escherichia coli DC2): 32 µg/mL (≈ 116 µM) | MIC [1]: 128 µg/mL (≈ 464 µM) | MIC [2]: 32 µg/mL (≈ 116 µM) | MIC [3]: 16 µg/mL (≈ 58 µM)

Oc1cc2c(cc1O)CC(COc1ccc(Cl)cc1Cl)NC2 (stereo not shown) [Example 10, 3-(2,4-Dichloro-phenoxymethyl)-1,2,3,4-tetrahydro-isoquinoline-6,7-diol]
MIC (Escherichia coli DC2): 2 µg/mL (≈ 5.88 µM) | MIC [1]: 128 µg/mL (≈ 376 µM) | MIC [2]: 16 µg/mL (≈ 47 µM) | MIC [3]: 8 µg/mL (≈ 23.5 µM)

Oc1cc2c(cc1O)CC(c1ccc(Oc3ccccc3)cc1)NC2 (stereo not shown) [Example 1, 3-(4-Phenoxy-phenyl)-1,2,3,4-tetrahydro-isoquinoline-6,7-diol]
MIC (Escherichia coli DC2): 8 µg/mL (≈ 24 µM) | MIC [1]: 32 µg/mL (≈ 96 µM) | MIC [2]: 8 µg/mL (≈ 24 µM) | MIC [3]: 8 µg/mL (≈ 24 µM)

OCC1Cc2cc(O)c(O)cc2CN1 (stereo not shown) [Example 6, 3-Hydroxymethyl-1,2,3,4-tetrahydro-isoquinoline-6,7-diol]
MIC (Escherichia coli DC2): 32 µg/mL (≈ 164 µM) | MIC [1]: 64 µg/mL (≈ 328 µM) | MIC [2]: 16 µg/mL (≈ 82 µM) | MIC [3]: 16 µg/mL (≈ 82 µM)

Oc1cc2c(cc1O)CC(c1ccc3oc4ccccc4c3c1)NC2 (stereo not shown) [Example 7, 3-Dibenzofuran-2-yl-1,2,3,4-tetrahydro-isoquinoline-6,7-diol]
MIC (Escherichia coli DC2): 32 µg/mL (≈ 96.6 µM) | MIC [1]: 64 µg/mL (≈ 193 µM) | MIC [2]: 16 µg/mL (≈ 48.3 µM) | MIC [3]: 8 µg/mL (≈ 24.1 µM)

Oc1cc2c(cc1O)CC(c1ccc(Cl)cc1Cl)NC2 (stereo not shown) [Example 9, 3-(2,4-Dichloro-phenyl)-1,2,3,4-tetrahydro-isoquinoline-6,7-diol]
MIC (Escherichia coli DC2): 64 µg/mL (≈ 206 µM) | MIC [1]: 128 µg/mL (≈ 413 µM) | MIC [2]: 64 µg/mL (≈ 206 µM) | MIC [3]: 64 µg/mL (≈ 206 µM)

Oc1cc2c(cc1O)CC(c1ccc(-c3ccc(F)cc3F)cc1)NC2 (stereo not shown) [Example 21, 3-(2′,4′-Difluoro-biphenyl-4-yl)-1,2,3,4-tetrahydro-isoquinoline-6,7-diol]
MIC (Escherichia coli DC2): 8 µg/mL (≈ 22.6 µM) | MIC [1]: 32 µg/mL (≈ 90.6 µM) | MIC [2]: 8 µg/mL (≈ 22.6 µM) | MIC [3]: 8 µg/mL (≈ 22.6 µM)

N#Cc1cccc(-c2ccc(C3Cc4cc(O)c(O)cc4CN3)cc2)c1 (stereo not shown) [Example 22, 4′-(6,7-Dihydroxy-1,2,3,4-tetrahydro-isoquinolin-3-yl)-biphenyl-3-carbonitrile]
MIC (Escherichia coli DC2): 64 µg/mL (≈ 187 µM) | MIC [1]: > 128 µg/mL | MIC [2]: > 128 µg/mL | MIC [3]: 128 µg/mL (≈ 374 µM)

Oc1ccc(-c2ccc(C3Cc4cc(O)c(O)cc4CN3)cc2)cc1 (stereo not shown) [Example 19, 3-(4′-Hydroxy-biphenyl-4-yl)-1,2,3,4-tetrahydro-isoquinoline-6,7-diol]
MIC (Escherichia coli DC2): 64 µg/mL (≈ 192 µM) | MIC [1]: > 128 µg/mL | MIC [2]: 128 µg/mL (≈ 384 µM) | MIC [3]: 128 µg/mL (≈ 384 µM)

Oc1cc2c(cc1O)CN(Cc1ccccc1)C(c1ccc(Oc3ccccc3)cc1)C2 (stereo not shown) [Example 2, 2-Benzyl-3-(4-phenoxy-phenyl)-1,2,3,4-tetrahydro-isoquinoline-6,7-diol]
MIC (Escherichia coli DC2): 64 µg/mL (≈ 151 µM) | MIC [1]: > 128 µg/mL | MIC [2]: 32 µg/mL (≈ 75.6 µM) | MIC [3]: 64 µg/mL (≈ 151 µM)

CN(C)c1ccc(-c2ccc(C3Cc4cc(O)c(O)cc4CN3)cc2)cc1 (stereo not shown) [Example 18, 3-(4′-Dimethylamino-biphenyl-4-yl)-1,2,3,4-tetrahydro-isoquinoline-6,7-diol]
MIC (Escherichia coli DC2): 8 µg/mL (≈ 22.2 µM) | MIC [1]: > 128 µg/mL | MIC [2]: 16 µg/mL (≈ 44.4 µM) | MIC [3]: 4 µg/mL (≈ 11.1 µM)
